# Experimental data reported in patent publication US20130231309A1, “TREATMENT OF INFLAMMATION AND ORGAN DYSFUNCTION” (THE REGENTS OF THE UNIVERSITY OF CALIFORNIA, priority 2005, published 2013).
# Experiments:
# [1] = WKY and SHR central hemodynamics (arterial blood pressure via femoral artery catheter, heart rate) after chronic doxycycline; format: in vivo, rat; conditions: for Mean Blood Pressure: doxycycline 55 mg/liter in drinking water (~5.4 mg/kg/day); for Diastolic Blood Pressure / Heart Rate / Systolic Blood Pressure: doxycycline in drinking water; for Mean Arterial Blood Pressure during Chronic MMP Inhibition: after MMP inhibition for 12 weeks, age 30 weeks
# Experimental: Selected WKY and SHR were treated with doxycycline (55 mg/liter in drinking water, average consumption ˜5.4 mg/kg/day, West-Ward Pharmaceutical Corp., Eatontown, N.J.) for a period of 24 weeks. It should be noted that lower and higher concentrations are also effective. A range of effective does of about 1.0-20.0 mg/kg/day, resulting from the dissolution of about 5.5-220 mg of an MMP inhibitor per liter, may also be used to produce an effective result. Narrower ranges of MMP solute may also be used, for example, 75-180 mg, and 100 mg-150 mg. The ileocecal portion of the mesentery was prepared as described in Delano and Schmid-Schonbein, “The Glucocorticoid and Mineralocorticoid Receptor Distribution in a Microvascular Network of the Spontaneously Hypertensive Rat.” Briefly, arterial blood pressure was recorded via a femoral artery catheter. Individual sectors of mesentery were exposed via an abdominal midline incision while superfused with Krebs-Henseleit buffer (37° C., pH=7.4). The blood pressure of WKY and SHR was reduced by doxycycline treatment as shown below in Table 1, a trend that was detectable in terms of systolic, diastolic or mean blood pressure. […] In another experiment, and in order to explore the utility of chronic protease inhibition, a group of mature normotensive Wistar Kyoto rats (as well as a cohort of spontaneously hypertensive rats) were treated with a broad acting metafloproteases inhibitor (doxycycline, 55 mg/liter in drinking water, average consumption ˜5.4 mg/kg/day) over a period of 12 weeks until the age of 30 weeks.
# [2] = Blood cell counts (hematocrit, total leukocyte count); format: in vivo, rat; conditions: for Leukocyte Count: doxycycline in drinking water
# Experimental: Selected WKY and SHR were treated with doxycycline (55 mg/liter in drinking water, average consumption ˜5.4 mg/kg/day, West-Ward Pharmaceutical Corp., Eatontown, N.J.) for a period of 24 weeks. It should be noted that lower and higher concentrations are also effective. A range of effective does of about 1.0-20.0 mg/kg/day, resulting from the dissolution of about 5.5-220 mg of an MMP inhibitor per liter, may also be used to produce an effective result. Narrower ranges of MMP solute may also be used, for example, 75-180 mg, and 100 mg-150 mg. Fresh leukocytes were fixed on a blood smear in whole blood (using heparin as anticoagulant, 10 U/ml) with formalin solution and […] (10%, neutral buffered, 1 hr). Total leukocyte count was determined with a hemocytometer, and hematocrit was centrifuged in microhematocrit tubes. Neutrophils were separated in a density gradient (Histopaque-1077, Sigma Aldrich, spun at 42 g for 5 min).
# [3] = test system: plasma proteases (metallo-, serine, acid and sulfhydryl proteases); experiment: Plasma protease activity (fluorescent protease assay kit, Enzchek); format: in vivo, rat; conditions: after MMP inhibition for 12 weeks, age 30 weeks
# Experimental: Fresh plasma samples were frozen (−60 C) until measurements were taken. On the day of the experiment, the samples were unfrozen and tested simultaneously for overall protease activity with fluorescent protease assay kit (Enzchek, Cat #E-6638, Molecular Probes). The substrate was cleaved by a range of proteases (metallo-, serine, acid and sulfhydryl proteases). Protease activity was determined from fluorescent intensity after peptide cleavage (in fluorescent units). In another experiment, and in order to explore the utility of chronic protease inhibition, a group of mature normotensive Wistar Kyoto rats (as well as a cohort of spontaneously hypertensive rats) were treated with a broad acting metafloproteases inhibitor (doxycycline, 55 mg/liter in drinking water, average consumption ˜5.4 mg/kg/day) over a period of 12 weeks until the age of 30 weeks.
# [4] = test system: apoptotic cells in thymus, kidney, skeletal muscle; experiment: Apoptosis by TUNEL / propidium iodide labeling of frozen tissue sections; format: in vivo, rat; conditions: chronic doxycycline; for Fraction Of Apoptotic Cells, Thymus: tissue area of 10,000 μm^2
# Experimental: A subsequent study was performed to consider the reduction of cell apoptosis after chronic MMP inhibition. In addition to the dramatic reduction of blood pressure, free radical production, membrane receptor cleavage and other pathophysiological parameters (described elsewhere) that point towards organ injury in the SHR, cell apoptosis was also considered after MMP inhibition. […] For this purpose, a novel digital technique was introduced to determine nuclear fragmentation on freshly-harvested frozen tissue sections labeled for DNA breaks with the TUNEL technique and with propidium iodide (PI) for the detection of cell nuclei (see FIG. 9). […] PI-positive nuclei (B) are used to identify the total number of cells in the fields. Their image is superimposed on the bright field image of TUNEL-positive nuclei (dark brown color in A) to determine digitally the light absorption due to the TUNEL label (shown in green in panels C) and the level of apoptosis (C).
# [5] = Thymus weight normalized to body weight; format: in vivo, rat; conditions: chronic doxycycline, n = 5
# Excerpt: The reduced apoptosis in the thymus by MMP blockade is also confirmed by direct measurements of the organ weight (shown in Table 6).
# [6] = test system: MMP-1 (collagenase-1) and MMP-9 (gelatinase B); experiment: In-vivo zymography of mesentery with fluorogenic substrate; set-up: species or system rat; conditions: EDTA 5 mM applied to mesentery
# Experimental: Measurement of MMP-1,9 activity was obtained by superfusion of the mesentery with fluorogenic substrate (0.5 μmol/L; catalogue number D2293, Sigma-Aldrich Inc., St. Louis, Mo.) added to the suffusate. The substrate was cleaved by MMP-1 (collagenase-1) and MMP-9 (gelatinase B). The mesentery was loaded with substrate 10 minutes prior to image collection and continuously suffused with substrate throughout the experiment. The associated fluorescence was visualized by epi-illumination at 280 nm passing through a 340 nm emission filter on a fluorescent intravital microscope (Leica), and recorded digitally for measurement of fluorescent intensity. Light intensity of the emitted fluorescent light was recorded in digital units (1-256) after subtraction of background intensity in the absence of the tissue with standardized microscope settings. Reproducibility of these measurements as determined by repeated measurements on the same specimen was within 3%.
smiles,measurement,setting,value
C[C@H]1c2cccc(O)c2C(=O)C2=C(O)[C@]3(O)C(=O)C(C(N)=O)=C(O)[C@@H](N(C)C)[C@@H]3[C@@H](O)[C@@H]21 [doxycycline],Mean Blood Pressure,"[1]; SHR, n = 7",126.3 ± 13.5 mmHg
same,Diastolic Blood Pressure,[1]; SHR,99.4 ± 17.3 mmHg
same,Heart Rate,[1]; SHR,398 ± 60 beats/min
same,Systolic Blood Pressure,[1]; SHR,161.9 ± 14.5 mmHg
same,Mean Arterial Blood Pressure during Chronic MMP Inhibition,[1]; Spontaneously Hypertensive rat,126.3 ± 13.5 mmHg
same,Mean Blood Pressure,"[1]; WKY rats, n = 6",95.7 ± 8.5 mmHg
same,Diastolic Blood Pressure,[1]; WKY rats,77.4 ± 6.8 mmHg
same,Heart Rate,[1]; WKY rats,364 ± 30 beats/min
same,Systolic Blood Pressure,[1]; WKY rats,125.3 ± 10.6 mmHg
same,"Arterial pressure after treatment, relative to the Wistar rat","[1]; WKY rats, Wistar rat about 105 mmHg",< 105 mmHg
same,Mean Arterial Blood Pressure during Chronic MMP Inhibition,[1]; Wistar Kyoto rat,95.7 ± 8.5 mmHg
same,Leukocyte count after treatment as share of its usually high count,[2]; SHR group,less than 50%
same,Leukocyte Count,[2]; SHR,2532 ± 574
same,Leukocyte Count,[2]; WKY rats,"2737 ± 272*, **"
same,Plasma Protease Activity During Chronic MMP Inhibition,[3]; Spontaneously Hypertensive rat,472 ± 24 FU
same,Plasma Protease Activity During Chronic MMP Inhibition,[3]; Wistar Kyoto rat,413 ± 40 FU
same,"Fraction Of Apoptotic Cells, Kidney",[4]; SHR,12.8 ± 5.2%
same,"Fraction Of Apoptotic Cells, Skeletal muscle",[4]; SHR,1.7 ± 2.4 %
same,"Fraction Of Apoptotic Cells, Thymus",[4]; SHR,13.8 ± 9.1 %
same,"Fraction Of Apoptotic Cells, Kidney",[4]; WKY,5.1 ± 3.5%
same,"Fraction Of Apoptotic Cells, Skeletal muscle",[4]; WKY,1.4 ± 1.3%
same,"Fraction Of Apoptotic Cells, Thymus",[4]; WKY,4.7 ± 3.0%
same,Thymus Weight Normalized With Respect To Body Weight,[5]; SHR,87.4 ± 3.3 mg/100 g body wt
same,Thymus Weight Normalized With Respect To Body Weight,[5]; WKY,81.4 ± 7.4 mg/100 g body wt
"O=C(O)CN(CCN(CC(=O)O)CC(=O)O)CC(=O)O [EDTA, ethylenediaminetetraacetic acid]",Fluorescent intensity generated by the fluorogenic substrate,[6],undetectable
